According to patent publication US7829568B2, “Substituted 5,6,7,8-tetrahydroimidazo[1,2-a]pyridin-2-ylamine compounds and their use for producing drugs” (Gruenenthal GmbH, priority 2005, dated 2010):

Tested on: batrachotoxin (BTX) binding site of the sodium channel
Experiment: Affinity to the batrachotoxin (BTX) binding site of the sodium channel
Set-up: species or system rat
Conditions: [3H]-batrachotoxinin A20 α-benzoate 10 nM; synaptosomes from rat cerebral cortex; test concentration not given

SMILES	BTX inhibition (rat) (% inhibition)
CC(CNC(=O)c1c(N(C)C(=O)c2cccc3ccccc23)nc2n1CCCC2)c1ccc(Cl)cc1 (stereo not shown) [Example 163, 2-[methyl-(naphthalene-1-carbonyl)-amino]-5,6,7,8-tetrahydro-imidazo[1,2-a]pyridine-3-carboxylic acid [2-(4-chlor-phenyl)-propyl]-amide]	40%
CCCCN(C(=O)c1cccc(Cl)c1)c1nc2n(c1C(=O)NCCOc1ccccc1)CCCC2 [Example 107, 2-[butyl-(3-chloro-benzoyl)-amino]-5,6,7,8-tetrahydro-imidazo[1,2-a]pyridine-3-carboxylic acid (2-phenoxy-ethyl)-amide]	39%
CCCCN(C(=O)c1cccc(Cl)c1)c1nc2n(c1C(=O)N1CCN(c3ccccn3)CC1)CCCC2 [Example 72, N-butyl-3-chloro-N-[3-(4-pyridin-2-yl-piperazine-1-carbonyl)-5,6,7,8-tetrahydro-imidazo[1,2-a]pyridin-2-yl]-benzamide]	39%
CN(C(=O)c1ccccc1)c1nc2n(c1C(=O)Nc1ccc3c(c1)OCO3)CCCC2 [Example 85, 2-(benzoyl-methyl-amino)-5,6,7,8-tetrahydro-imidazo[1,2-a]pyridine-3-carboxylic acid benzo[1,3]dioxol-5-ylamide]	30%
CCCCN(C(=O)c1cccc(Cl)c1)c1nc2n(c1C(=O)NCc1ccc(F)cc1F)CCCC2 [Example 47, 2-[butyl-(3-chloro-benzoyl)-amino]-5,6,7,8-tetrahydro-imidazo[1,2-a]pyridine-3-carboxylic acid 2,4-difluoro-benzylamide]	44%
CCCCN(C(=O)c1ccc(F)c(F)c1)c1nc2n(c1C(=O)N1CCN(Cc3ccc4c(c3)OCO4)CC1)CCCC2 [Example 137, N-[3-(4-benzo[1,3]dioxol-5-ylmethyl-piperazine-1-carbonyl)-5,6,7,8-tetrahydro-imidazo[1,2-a]pyridin-2-yl]-N-butyl-3,4-difluor-benzamide]	72%
CN(C(=O)c1cccc2ccccc12)c1nc2n(c1C(=O)NC(c1ccccc1)c1ccc(Cl)cc1)CCCC2 (stereo not shown) [Example 139, 2-[methyl-(naphthalene-1-carbonyl)-amino]-5,6,7,8-tetrahydro-imidazo[1,2-a]pyridine-3-carboxylic acid [(4-chlor-phenyl)-phenyl-methyl]-amide]	73%
CCCCN(C(=O)c1ccc(F)c(F)c1)c1nc2n(c1C(=O)N(C)C1CCN(Cc3cc4ccccc4o3)C1)CCCC2 (stereo not shown) [Example 34, 2-[butyl-(3,4-difluoro-benzoyl)-amino]-5,6,7,8-tetrahydro-imidazo[1,2-a]pyridine-3-carboxylic acid (1-benzofuran-2-ylmethyl-pyrrolidin-3-yl)-methyl-amide]	83%
CN(C(=O)c1ccccc1)c1nc2n(c1C(=O)NC1CCN(Cc3c(Cl)cccc3Cl)C1)CCCC2 (stereo not shown) [Example 101, 2-(benzoyl-methyl-amino)-5,6,7,8-tetrahydro-imidazo[1,2-a]pyridine-3-carboxylic acid [1-(2,6-dichloro-benzyl)-pyrrolidin-3-yl]-amide]	54%
CN(C(=O)c1cccc(Cl)c1)c1nc2n(c1C(=O)N1CCC(O)(c3cccc(C(F)(F)F)c3)CC1)CCCC2 [Example 81, 3-chloro-N-{3-[4-hydroxy-4-(3-trifluoromethyl-phenyl)-piperidine-1-carbonyl]-5,6,7,8-tetrahydro-imidazo[1,2-a]pyridin-2-yl}-N-methyl-benzamide]	33%
CCCCN(C(=O)c1cccc(Cl)c1)c1nc2n(c1C(=O)NC1CCCCC1OCc1ccccc1)CCCC2 (stereo not shown) [Example 124, 2-[butyl-(3-chloro-benzoyl)-amino]-5,6,7,8-tetrahydro-imidazo[1,2-a]pyridine-3-carboxylic acid (2-benzyloxy-cyclohexyl)-amide]	48%
CN(C(=O)c1cccc(Cl)c1)c1nc2n(c1C(=O)Nc1ccc(OCc3ccccc3)cc1)CCCC2 [Example 129, 2-[(3-chloro-benzoyl)-methyl-amino]-5,6,7,8-tetrahydro-imidazo[1,2-a]pyridine-3-carboxylic acid (4-benzyloxy-phenyl)-amide]	76%
CN(C(=O)c1cccc2ccccc12)c1nc2n(c1C(=O)NCc1cccc(Cl)c1Cl)CCCC2 [Example 33, 2-[methyl-(naphthalene-1-carbonyl)-amino]-5,6,7,8-tetrahydro-imidazo[1,2-a]pyridine-3-carboxylic acid 2,3-dichlor-benzylamide]	49%
